This is an account of results in patent US7601735B2, “Antiviral compounds” (priority 2001, dated 2009).

In one series the test system is BVDV. In words: XTT cytopathicity assay, Bucast in combination with interferon alpha. It counts as cell-based, bovine viral diarrhoea virus. Here is the method: (§1) MDBK cells were seeded into 96-well cell culture plates (Costar® 3596, Corning Incorp., USA) and allowed to grow to confluency. The cells were washed twice in warm phosphate buffered saline (PBS) and then infected with BVDV NADL (100 pfu/well) in 100 μl of DMEM supplemented with 5% horse serum, 2 mM L-glutamine, 50 U/ml penicillin and 50 μg/ml streptomycin. Some wells were mock infected to act as controls. A further 100 μl of DMEM supplemented as above, but containing different concentrations of test compound or no compound was then added to each well. Triplicate wells were used for each compound concentration. In parallel, uninfected cells were treated with compound to assess cytotoxicity. The plates were then incubated at 37° C. with 5% CO2. After 6 days 25 μl of a 1 mg/ml 2,3-bis[2-methoxy-4-nitro-5-sulphophenyl]-2H-tetrazolium-5-carboxanilide (XTT)/25 μM phenazine methosulphate (PMS) solution (XTT and PMS purchased from Sigma, Poole, Dorset, UK) was then added to each well and the plates incubated for 2 hours at 37° C. with 5% CO2. The absorbance was then determined at 450 nm. Data was plotted as O. D versus the log of the concentration of the compound and the 50% inhibitory concentration (IC50) computed.
The combination indexes (CI) were calculated using the formula of Suhnel (Antiviral Research, 13, 23-40). A CI value of less than 1 indicates a synergistic interaction and values of less than 0.8 are considered to indicate a statistically significant result.

Series [1] has as its system BVDV NADL. Briefly: XTT cytopathicity assay, infected cells. It counts as cell-based, bovine viral diarrhoea virus. The conditions noted are these: for protection of MDBK cells against virus-induced cell death (cytopathic effect of BVDV): FIG. 2. Here is the method:
The cells were washed twice in warm phosphate buffered saline (PBS) and then infected with BVDV NADL (100 pfu/well) in 100 μl of DMEM supplemented with 5% horse serum, 2 mM L-glutamine, 50 U/ml penicillin and 50 μg/ml streptomycin. Some wells were mock infected to act as controls. A further 100 μl of DMEM supplemented as above, but containing different concentrations of test compound or no compound was then added to each well. Triplicate wells were used for each compound concentration. In parallel, uninfected cells were treated with compound to assess cytotoxicity. The plates were then incubated at 37° C. with 5% CO2. […] The absorbance was then determined at 450 nm.

In series [2] the test system is MDBK cells. In words: XTT cytopathicity assay, uninfected cells (cytotoxicity). Format: cell-based, bovine. The conditions noted are these: for CC50: uninfected MDBK cells, 6 days. Here is the method: as §1
Series [3] deals with MDBK cells. Briefly: Cytotoxicity in plaque reduction assay, microscopic examination of the cell monolayers. It counts as cell-based, bovine. Here is the method: (§2) MDBK cells were seeded into 6-well cell culture plates (Nunclon™, Nunc, Denmark) and allowed to grow to confluency. The cells are washed twice in warm phosphate buffered saline (PBS) and then infected with BVDV NADL (150 pfu/well) in 0.25 ml PBS containing 1% horse serum and 1 mM MgCl2. The cell culture plates were then incubated at 37° C. for one hour with 5% CO2 and the plates rocked every 15-20 minutes. The virus inoculum was then removed and replaced with 3.0 ml of 0.5% low-gelling temperature agarose overlay diluted in DMEM supplemented with 5% horse serum, 2 mM L-glutamine, 50 U/ml penicillin and 50 Lg/ml streptomycin and containing different concentrations of test compound or no compound. At least duplicate or triplicate wells were used for each concentration of test compound. The agarose was allowed to solidify at room temperature for 15 minutes and then incubated at 37° C. with 5% CO2. After 3 days incubation the cells were fixed by adding 1.5 ml of a […] solution over the agar overlay and leaving overnight. The agar was gently removed from the wells and the cells stained with 0.3% methylene blue in PBS for 10 minutes at room temperature. The excess stain was removed and the cells washed with PBS prior to drying of the plates and counting of the viral plaques microscopically. Dose response lines were plotted from the mean number of plaques present versus the log of the concentration of the compound. The 50% Inhibitory concentration (IC50) was computed after linear regression analysis.
(§3) There was no sign of cytotoxicity at concentrations up to 1000 μM as judged by microscopic examination of the cell monolayers.

Series [4] concerns BVDV NADL. Briefly: Plaque reduction assay in MDBK cells. Format: cell-based, bovine viral diarrhoea virus. The conditions noted are these: for inhibition of formation of BVDV plaques / IC50: MDBK cells; for inhibition of formation of BVDV plaques: FIG. 1; for concentrations at which only partial inhibition was shown: parallel plaque reduction experiments. Here is the method: MDBK cells (NBL-1) (ATCC CCL22) derived from bovine kidney and cytopathic (cp) BVDV (strain NADL) (ATCC VR-534) were available from the American Type Culture Collection (ATCC).
as §2

Series [5] in a line: XTT cytopathicity assay, uninfected cells (cytotoxicity). It counts as cell-based, bovine. Particulars: bovine. Here is the method: as §1
Series [6] is described as follows: Cytotoxicity in plaque reduction assay, microscopic examination of the cell monolayers. Particulars: bovine. Format: cell-based, bovine. Here is the method: as §2, §3
Where [7] appears, read: individual experiments, MOI = 0.01, read-out: *IC50.
[8] abbreviates: MDBK cell monolayers, plaque reduction assay.
[9] abbreviates: individual experiments, 150 pfu/well, 3 days, read-out: IC50.
Setting [10] is: mean of experiments, read-out: Mean IC50 (μM) ± SD.

Where “and” joins values, the source holds several entries; their conditions need not be identical. Identical values can stand only once. Like-named read-outs stand apart in the source and are kept apart here.

As to `CCCC(=O)O[C@H]1CN2CC[C@H](O)[C@@H]2[C@@H](O)[C@@H]1O` [Bucast, 60-butanoylcastanospermine], the IC50 in the series with BVDV (fixed interferon α 0 IRU/well) stood at 52 ± 16.4 µM; in the series on BVDV (fixed interferon α 0.125 IRU/well) it was 13 µM; with BVDV (fixed interferon α 0.25 IRU/well), 4 µM; with BVDV (fixed interferon α 0.5 IRU/well) it was 3 µM; in the series on BVDV NADL [1] (MOI 0.0001, read-out: IC50) it was 5 µM; with BVDV NADL [1] (MOI 0.001, read-out: IC50), 40 µM. Moreover, the IC50 is 60 µM and 30 µM in the series with BVDV NADL [1] (MOI 0.01, read-out: IC50); 200 µM and 170 µM in the series with BVDV NADL [1] (MOI 0.1, read-out: IC50); 60 µM (2×) and 30 µM and 70 µM and 40 µM in the series on BVDV NADL [1] (setting [7]); 36 µM and 52 µM with BVDV NADL [1] (mean, MOI = 0.01, read-out: mean IC50); 10 µM (2×) and 20 µM and 25 µM in the series with BVDV NADL [4] (setting [9]); 16.2 µM with BVDV NADL [4] (setting [10]). Moreover, the “protection of MDBK cells against virus-induced cell death (cytopathic effect of BVDV)” value (shortened to “protection of MDBK cells”) with BVDV NADL [1] is recorded as “protected MDBK cells against virus-induced cell death”. The “cytotoxicity to uninfected treated cells” value in the series with MDBK cells [2] (FIG. 2) is listed as “no cytotoxicity”. Further, the CC50 in the series with MDBK cells [2] is more than 300 µM; with MDBK cells [3] (setting [8]), more than 1000 µM. The “inhibition of formation of BVDV plaques” value in the series with BVDV NADL [4] is “inhibited the formation of BVDV plaques in a dose dependent manner”. In addition, the “times more potent than castanospermine” value with BVDV NADL [4] (ratio of mean IC50) is given as “approximately 13 times”.

As for `OC1CN2CC[C@H](O)[C@@H]2C(O)[C@@H]1O` (stereo partly drawn) [Castanospermine, [1S-(1α, 6β,7α,8β,8αβ)]-octahydro-1,6,7,8-indoli-zinetetrol], the IC50 is 300 µM in the series with BVDV NADL [1] (Bovine viral diarrhea virus isolates and strains, in Bos taurus, individual experiments, MOI = 0.01, read-out: *IC50); 400 µM in the series with BVDV NADL [1] (Bovine viral diarrhea virus isolates and strains, in Bos taurus, read-out: mean IC50 (μM), mean, MOI = 0.01); 500 µM in the series with BVDV NADL [1] (setting [7]); 180 µM with BVDV NADL [4] (Bovine viral diarrhea virus isolates and strains, MDBK, in Bos taurus, 72 h, individual experiments, 150 pfu/well, 3 days, read-out: IC50); 217 µM in the series on BVDV NADL [4] (Bovine viral diarrhea virus isolates and strains, MDBK, in Bos taurus, mean of experiments, read-out: Mean IC50 (μM) ± SD); 190 µM and 280 µM in the series with BVDV NADL [4] (setting [9]). Besides, the “protection of MDBK cells” value with BVDV NADL [1] is “protected MDBK cells against virus-induced cell death”. In series [5], the CC50 at 6 days was more than 1 mM. Moreover, the “cytotoxicity to uninfected treated cells” value with MDBK cells [2] is “no cytotoxicity”. In addition, in series [6], the half-maximal cytotoxic concentration (CC50) at 3 days was more than 1 mM. Moreover, the “inhibition of formation of BVDV plaques” value in the series with BVDV NADL [4] is “inhibited the formation of BVDV plaques in a dose dependent manner”.

Take `CCCCN1C[C@H](O)[C@@H](O)[C@H](O)[C@H]1CO` [N-Butyl-DNJ, N-butyl-deoxynojirimycin]: the “protection of MDBK cells” value in the series on BVDV NADL [1] is “neither N-butyl-DNJ or N-nonyl-DNJ demonstrated any protection”. For the same compound, the IC50 is 55 µM with BVDV NADL [1] (MOI 0.0001, read-out: IC50); more than 300 µM in the series on BVDV NADL [1] (MOI 0.001, read-out: IC50); more than 300 µM in the series on BVDV NADL [1] (MOI 0.01, read-out: IC50); more than 300 µM with BVDV NADL [1] (MOI 0.1, read-out: IC50); more than 1000 µM in the series with BVDV NADL [1] (setting [7]); > 300 µM and 250 µM with BVDV NADL [4] (setting [9]). Moreover, in the series on BVDV NADL [1] (very low MOI), the “fold less potent than Bucast” value was determined as 10 fold. Further, the “cytotoxicity to uninfected treated cells” value in the series on MDBK cells [2] (FIG. 2) was “no cytotoxicity”. Further, the CC50 in the series on MDBK cells [2] is more than 1000 µM; in the series with MDBK cells [3] (setting [8]), more than 300 µM. The “concentrations at which only partial inhibition was shown” value with BVDV NADL [4] was more than 100 µM.

As to `CCCCCCCCCN1C[C@H](O)[C@@H](O)[C@H](O)[C@H]1CO` [N-Nonyl-DNJ, N-nonyl-deoxynojirimycin], in the series with BVDV NADL [1], the “protection of MDBK cells” value is “neither N-butyl-DNJ or N-nonyl-DNJ demonstrated any protection”. In addition, the IC50 with BVDV NADL [1] (setting [7]) is 60 µM and > 100 µM; in the series on BVDV NADL [4] (setting [9]) it was 90 µM and 120 µM; in the series on BVDV NADL [4] (setting [10]), 105 µM. Besides, in the series with MDBK cells [2] (FIG. 2), the “cytotoxicity to uninfected treated cells” value is recorded as “clearly cytotoxic”. In addition, it took 120 µM to reach half-maximal cytotoxicity in the series on MDBK cells [2] (CC50). Moreover, the “CC50 (μM)” value in the series with MDBK cells [3] (setting [8]) is on record as “Toxic @ 300”. Besides, the cytotoxicity to cells result in the series with MDBK cells [3] (at a concentration of 300 μM) is listed as “clearly cytotoxic”. Moreover, the “concentrations at which only partial inhibition was shown” value with BVDV NADL [4] is more than 300 µM.

In the case of Interferon α, the figures for the “IC50 Interferon α (IRU/well)” value with BVDV (fixed Bucast 0 μM), in the series on BVDV (fixed Bucast 5 μM) and in the series with BVDV (fixed Bucast 10 μM) were 1.3 IRU/well, 0.22 IRU/well and 0.12 IRU/well, respectively. Also, in the series with BVDV NADL [1] (interferon alone), the IC50 is listed as 1.3 interferon resistance units (IRU) per well.
